According to paper PMC4803471 (Anesthesiology, 2016):
Like-named read-outs stand apart in the source and are kept apart here.

Key:
[1] = previously published value; cited from earlier work
Sprague-Dawley rats [2] = conditions: previously published value; cited from earlier work
[3] = molecular target: α1(L264T)β3γ2 GABAA receptors (Homo sapiens, UniProt P14867+P28472, L291T); assay type: cell-based; conditions: for Peak amplitude of evoked current: representative trace, single oocyte
Sprague-Dawley rats [4] = assay: Rat loss of righting reflexes; conditions: intravenous, dose producing LORR in 50% of rats
[5] = Octanol:water partition coefficient determination; assay type: physicochemical; conditions: mean ± SD

α1(L264T)β3γ2 GABAA receptors, sequence (P14867 28-456 L291T): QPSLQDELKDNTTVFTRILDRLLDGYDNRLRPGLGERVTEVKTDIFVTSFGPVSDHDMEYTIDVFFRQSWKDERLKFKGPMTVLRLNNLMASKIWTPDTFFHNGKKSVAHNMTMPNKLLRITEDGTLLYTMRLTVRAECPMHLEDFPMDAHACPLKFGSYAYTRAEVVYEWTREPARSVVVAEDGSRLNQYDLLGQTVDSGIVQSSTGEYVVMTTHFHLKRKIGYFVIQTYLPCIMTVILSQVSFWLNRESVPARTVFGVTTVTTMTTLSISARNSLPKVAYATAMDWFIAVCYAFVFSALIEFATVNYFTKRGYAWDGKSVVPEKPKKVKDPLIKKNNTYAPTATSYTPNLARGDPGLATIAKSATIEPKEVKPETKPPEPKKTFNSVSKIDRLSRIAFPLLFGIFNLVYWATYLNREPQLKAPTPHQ
α1(L264T)β3γ2 GABAA receptors, sequence (P28472 26-473): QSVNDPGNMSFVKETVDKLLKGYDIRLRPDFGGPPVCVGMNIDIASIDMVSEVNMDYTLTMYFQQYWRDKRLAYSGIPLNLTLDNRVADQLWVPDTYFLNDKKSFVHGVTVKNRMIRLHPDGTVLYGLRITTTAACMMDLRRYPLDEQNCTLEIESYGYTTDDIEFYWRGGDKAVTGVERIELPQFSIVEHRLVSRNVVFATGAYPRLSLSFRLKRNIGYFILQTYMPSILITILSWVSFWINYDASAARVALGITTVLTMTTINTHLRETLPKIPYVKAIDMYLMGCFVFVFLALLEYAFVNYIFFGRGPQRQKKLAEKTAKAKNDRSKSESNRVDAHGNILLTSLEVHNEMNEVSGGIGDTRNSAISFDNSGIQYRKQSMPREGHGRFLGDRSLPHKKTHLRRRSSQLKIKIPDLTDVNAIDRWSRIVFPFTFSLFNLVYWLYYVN
α1(L264T)β3γ2 GABAA receptors, sequence (P18507 40-475 partner): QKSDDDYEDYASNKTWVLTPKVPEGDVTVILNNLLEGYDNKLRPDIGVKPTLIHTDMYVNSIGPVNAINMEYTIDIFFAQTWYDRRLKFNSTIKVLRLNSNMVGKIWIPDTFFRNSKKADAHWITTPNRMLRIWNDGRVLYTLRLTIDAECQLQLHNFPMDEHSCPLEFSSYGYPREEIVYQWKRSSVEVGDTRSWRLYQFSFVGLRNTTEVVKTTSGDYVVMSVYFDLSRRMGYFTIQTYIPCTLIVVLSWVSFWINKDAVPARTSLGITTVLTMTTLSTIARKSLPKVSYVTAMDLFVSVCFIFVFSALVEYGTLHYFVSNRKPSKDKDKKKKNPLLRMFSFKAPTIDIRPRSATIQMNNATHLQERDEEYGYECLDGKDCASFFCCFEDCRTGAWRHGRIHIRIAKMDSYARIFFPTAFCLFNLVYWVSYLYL

| Compound | Octanol:Buffer Partition Coefficient [1] | Hypnotic ED50 (loss of righting reflexes) (Sprague-Dawley rats [2]) | further results |
| --- | --- | --- | --- |
| CCOC(=O)c1cncn1Cc1ccccc1 [Compound 4, Dihydrogen etomidate] | 388 ± 32 (13) | 5.2 ± 1 (13) mg/kg |  |
| COC(=O)C[C@@H](C)OC(=O)c1cncn1[C@H](C)c1ccccc1 [Compound 22, β-(R)-methyl-methoxycarbonyl etomidate] | 500 ± 24 (19) | 3.5 ± 0.6 (19) mg/kg |  |
| COC(=O)[C@H](C)COC(=O)c1cncn1[C@H](C)c1ccccc1 [Compound 20, α-(R)-methyl-methoxycarbonyl etomidate] | 670 ± 120 (19) | 5.2 ± 0.5 (19) mg/kg |  |
| COC(=O)[C@H](C)OC(=O)c1cncn1[C@H](C)c1ccccc1 [Compound 12, S-methyl-methoxycarbonyl metomidate] | 330 ± 16 (19) | 3.5 ± 0.4 (19) mg/kg |  |
| COC(=O)CCOC(=O)c1cncn1[C@H](c1ccccc1)C(C)C [Compound 16, (S)-isopropyl-methoxycarbonyl metomidate] | 2,860 ± 67 (19) | 1.2 ± 0.2 (19) mg/kg | Peak amplitude of evoked current ([3]; 1 μM): 0.29 μA; Peak amplitude of evoked current ([3]; 10 μM): 0.90 μA |
| COC(=O)COC(=O)c1cncn1[C@H](C)c1ccccc1 [Compound 11, Methoxycarbonyl metomidate] | 159 ± 15 (19) | 11.1 ± 0.8 (19) mg/kg |  |
| COC(=O)C(C)(C)OC(=O)c1cncn1[C@H](C)c1ccccc1 [Compound 14, Dimethyl-methoxycarbonyl metomidate] | 660 ± 110 (19) | 0.72 ± 0.16 (19) mg/kg |  |
| Cyclopropyl methoxycarbonyl metomidate [Compound 15] | 420 ± 11 (19) | 0.69 ± 0.04 (19) mg/kg |  |
| 4-Pyridine carboetomidate [Compound 7] |  |  | Hypnotic ED50 (loss of righting reflexes) (Sprague-Dawley rats [4]): 25.0 ± 0.3 mg/kg |
| CCOC(=O)c1cccn1[C@H](C)c1ccccc1 [Compound 6, Carboetomidate] | 15,000 ± 3,700 (20) | 7.7 ± 0.8 (18) mg/kg | Potency relative to 4-pyridine carboetomidate ([3]; fold higher GABAA receptor potency): 24 fold; GABAA receptors activated at the highest concentration studied (at most) ([3]; normalized to 100 μM GABA, limited by aqueous solubility): ≤ 68 ± 6%; Potency for directly activating GABAA receptors relative to etomidate ([3]; ratio of EC50s): approximately 1/8 |
| CCOC(=O)c1cncn1C1(c2ccccc2)CC1 [Compound 5, Cyclopropyletomidate] | 458 ± 45 (13) | 5.2 ± 0.7 (13) mg/kg |  |
| COC(=O)c1cncn1C(C)c1ccccc1 (centres unmarked) [Compound 2, Metomidate, reference compound] |  |  | Octanol:Buffer Partition Coefficient [5]: 380 ± 48; EC50 [3]: 4.4 ± 0.7 µM |
| COC(=O)CCOC(=O)c1cncn1[C@@H](c1ccccc1)C(C)C [Compound 17, (R)-isopropyl-methoxycarbonyl metomidate] | 3,830 ± 310 (19) | 3.6 ± 0.8 (19) mg/kg | Peak amplitude of evoked current ([3]; 1 μM): 0.041 μA |
| COC(=O)[C@@H](C)COC(=O)c1cncn1[C@H](C)c1ccccc1 [Compound 19, α-(S)-methyl methoxycarbonyl etomidate] | 530 ± 170 (19) | 3.1 ± 0.4 (19) mg/kg |  |
| Racemic pentafluoroetomidate [Compound 8] |  |  | Octanol:Buffer Partition Coefficient [5]: 860 ± 260; Hypnotic ED50 (loss of righting reflexes) (Sprague-Dawley rats [4]): 1.7 ± 0.4 mg/kg |
| CCOC(=O)c1cncn1[C@H](C)c1ccccc1 [Compound 1, Etomidate, reference compound] | 731 ± 72 (13) | 0.47 ± 0.17 (13) mg/kg |  |
| COC(=O)CC(C)(C)OC(=O)c1cncn1C(C)c1ccccc1 (stereo not drawn) [Compound 23, β-Dimethyl-methoxycarbonyl etomidate] | 1,580 ± 40 (19) | 1.9 ± 0.3 (19) mg/kg |  |
| COC(=O)CCOC(=O)c1cncn1[C@H](C)c1ccccc1 [Compound 18, Methoxycarbonyl etomidate] | 190 ± 25 (19) | 5.3 ± 1.5 (19) mg/kg |  |
| S-pentafluoroetomidate [Compound 9] |  |  | Octanol:Buffer Partition Coefficient [5]: 880 ± 220; EC50 of S-enantiomer relative to racemic mixture ([3]; fold higher EC50): 22 fold; Hypnotic ED50 (loss of righting reflexes) (Sprague-Dawley rats [4]): 11.1 ± 0.8 mg/kg |
| COC(=O)C(C)(C)COC(=O)c1cncn1[C@H](C)c1ccccc1 [Compound 21, α-Dimethyl-methoxycarbonyl etomidate] | 2,240 ± 150 (19) | 2.4 ± 1 (19) mg/kg |  |
| CCOC(=O)c1cncn1[C@@H](C)c1ccccc1 [Compound 3, S-etomidate] | 711 ± 90 (13) | 5.2 ± 0.9 (13) mg/kg |  |
| COC(=O)[C@@H](C)OC(=O)c1cncn1[C@H](C)c1ccccc1 [Compound 13, R-methyl-methoxycarbonyl metomidate] | 380 ± 15 (19) | 9.6 ± 1.9 (19) mg/kg |  |
